# From US20070202047A1, “Polyamine-substituted ligands for use as contrast agents” (priority 2006, published 2007)
# Columns and labels:
# human melanocytes = test: Intracellular uptake of gadolinium complexes (ICP-MS); format: cell-based; details: 24-h incubation (FIG. 2C)
# Protocol: Cell culture. B16 melanoma cells (mouse) and MH3924A Morris hepatoma cells (rat) were obtained from the German Cancer Research Center (DKFZ) tumor bank and grown at 37° C. as stock cultures in RPMI 1640 supplemented with 10% fetal calf serum and 1% glutamine as standard medium under a 5% CO2 atmosphere (all components: Pan Biotech GmbH, Aidenbach, Germany). For contrast agent uptake studies 10^6 cells were inoculated into 25 cm^2 culture flasks (BD Biosciences, Bedford, USA) and grown for 24 h in 10 mL of the standard culture medium. […] Afterwards the medium was removed, cells were trypsinated, washed twice, resuspended in culture medium and counted (typical yields: 3.5-6 million cells). […] After digestion the cells were washed twice with PBS, resuspended in culture medium and counted (typical yields: 6×10^5 cells per tube). The intracellular gadolinium content was determined by ICP-MS as described below.
# ICP-MS. […] To each sample 100 μL of an aqueous solution of rhodium chloride (1 μg/mL) were added so that Rh-103 could be used as an internal quantification standard. […] The gadolinium concentrations were determined using standard curves created prior to cell analyses. For each uptake incubation condition triplicate cell samples were analyzed, and Gd content for each sample was recorded as the mean of two MS determinations.
# [1] = Biodistribution and excretion in tumor-bearing ACI rats; format: in vivo, rat; details: for gadolinium obtained in the faeces / gadolinium obtained in the urine: 24 h after injecting
# Protocol: Animal models. For in vivo tumor studies 2×10^6 MH3924A tumor cells were injected subcutaneously into the right thigh of male ACI rats (Charles River, Sulzfeld, Germany) weighing 220 to 260 g. All animal experiments were performed in compliance with the German Animal Protection Laws (Permission 35-9185.81/G-7-03, Reg.-Praesidium, Karlsruhe, Germany).
# Biodistribution and excretion data. At 14 days after tumor inoculation, when tumors had reached a diameter of ca. 5-6 mm, the biodistribution experiments were initiated. Each animal (210-250 g) was given an intravenous tail-vein injection of […] Magnevist® (Schering, Berlin, Germany) or […] of Gd-5.1. or Gd-6.1. 1 h and 24 hs post-injection (p.i.), the animals were weighed, sacrificed by cervical dislocation and dissected. Organs or tissues were blotted dry and weighed. Samples containing 100-500 mg of the tumor or organs were digested with concentrated HNO3 (Superselect; Merck, Darmstadt, Germany) and H2O2 under microwave heating with a Mars 5 apparatus (CEM GmbH, Kamp-Lintfort, Germany). To each sample 100 μL of an aqueous solution of rhodium chloride (1 μg/mL) were added so that Rh-103 could be used as an internal quantification standard. Gd-160 measurements were performed with the ICP-MS instrument mentioned above. The gadolinium concentrations were determined using standard curves created prior to tissue analyses. The results were expressed as % ID/g tissue. Urine and faeces were gathered in order to measure the excreted amount of Gd(III).
# MH3924A cells = test: Subcellular distribution; format: cell-based, rat; details: 100 μM, 24 h, 37° C.
# Protocol: Subcellular distribution. 5×10^6 MH3924A cells were grown in 25 cm^2 culture flasks (BD Biosciences, Bedford, USA) for 24 h in 10 mL of the standard culture medium. Cells were then incubated for an additional 24 h with 100 μM Gd-5.1. Afterwards the medium was removed, cells were trypsinated. Then the organelles were isolated with the Subcellular Proteome Extraction Kit ProteoExtract® (Merck, Darmstadt, Germany) according to the instructions of the manufacturer. Four fractions were obtained: Cytosol, membrane organelles (mainly mitochondria), nucleus and cytoskeleton (with associated endosomes and lysosomes). The gadolinium content for each fraction was determined by ICP-MS as described below.
# ICP-MS. Samples containing the above mentioned number of harvested cells were digested with 50% concentrated HNO3 (Superselect; Merck, Darmstadt, Germany) under microwave heating with a Mars 5 apparatus (CEM GmbH, Kamp-Lintfort, Germany). To each sample 100 μL of an aqueous solution of rhodium chloride (1 μg/mL) were added so that Rh-103 could be used as an internal quantification standard. Gd-160 measurements were performed with the ICP-MS instrument mentioned above. The gadolinium concentrations were determined using standard curves created prior to cell analyses. For each uptake incubation condition triplicate cell samples were analyzed, and Gd content for each sample was recorded as the mean of two MS determinations.
# [2] = 1 h post i.v. injection, one ACI rat, scaled to Gd dose of 100 μmol/kg
# [3] = 24 h post i.v. injection, one ACI rat
# [4] = 24 h post i.v. injection, one ACI rat, scaled to Gd dose of 100 μmol/kg
SMILES,"Gd concentration, Blood [1, 2] [nmol/g]","Gd concentration, Bone (femur) [1, 2] [nmol/g]","Gd concentration, Bone Marrow (femur) [1, 2] [nmol/g]","Gd concentration, Kidney (+urine) [1, 2] [nmol/g]","Gd concentration, Liver [1, 2] [nmol/g]","Gd concentration, Lung [1, 2] [nmol/g]","Gd concentration, Small Intestine [1, 2] [nmol/g]","Gd concentration, Tumor (MH3924A) [1, 2] [nmol/g]",gadolinium obtained in the faeces ([1]; ACI rat),gadolinium obtained in the urine ([1]; ACI rat) [%],"Excretion as % of total dose [1, 3] [%]","Gd concentration, Blood [1, 4] [nmol/g]","Gd concentration, Bone (femur) [1, 4] [nmol/g]","Gd concentration, Bone Marrow (femur) [1, 4] [nmol/g]","Gd concentration, Faeces [1, 4] [nmol/g]","Gd concentration, Kidney (+urine) [1, 4] [nmol/g]","Gd concentration, Liver [1, 4] [nmol/g]","Gd concentration, Lung [1, 4] [nmol/g]","Gd concentration, Small Intestine [1, 4] [nmol/g]","Gd concentration, Tumor (MH3924A) [1, 4] [nmol/g]",other results
NCCCCN(CCCN)C(=O)CN(CCN(CCN(CC(=O)[O-])CC(=O)N(CCCN)CCCCN)CC(=O)[O-])CC(=O)[O-].[Gd+3] [Gd-6.1],4.8,3.3,0.9,141.6,6.6,20.2,4.0,7.2,about 1%,98,94,0.1,1.0,2.3,41.4,62.3,5.5,5.9,0.1,0.8,"factor of higher uptake into B16 melanoma versus human melanocytes (human melanocytes): ~2; Gd concentration, Urine (cumulative) [1, 4]: 650.9 nmol/g"
NCCN(CCN)C(=O)CN(CCN(CCN(CC(=O)[O-])CC(=O)N(CCN)CCN)CC(=O)[O-])CC(=O)[O-].[Gd+3] [Gd-5.1],7.8,2.2,0.8,120.3,4.2,12.7,18.9,5.5,about 1%,98,98,0.1,0.9,1.7,16.6,40.9,2.0,24.2,0.4,0.6,"Gd concentration, Brain [1, 2]: 0.5 nmol/g; Gd concentration, Muscle (femur) [1, 2]: 1.6 nmol/g; Gd concentration, Spleen [1, 2]: 4.7 nmol/g; Gd concentration, Urine (cumulative) [1, 2]: 2116.7 nmol/g; Gd concentration, Urine (cumulative) [1, 4]: 537.2 nmol/g; agent still present in the tumor ([1]; 24 h post injection, MH3924A tumor, ACI rat): about 0.020 fmol/cell; preferential tissue binding (biodistribution) ([1]; ACI rat bearing MH3924A tumor, i.v.): binds preferentially to lung tissue and parts of the excretory system e.g. small intestine and kidneys; subcellular concentration, cytoplasma (MH3924A cells): 0.026 fmol/cell; subcellular concentration, cytoskeleton fraction (MH3924A cells): 0.065 fmol/cell; subcellular concentration, nucleus (MH3924A cells): 0.015 fmol/cell"
